Laboratory results from US10213464B2, “Method for enhancing engraftment of haematopoetic stem cells” (SCIPHARM SARL, priority 2011, dated 2019).

Legend:
[1] = system: (Lin−, c-Kit+, Sca-1+) haematopoetic stem cells; assay: [3H]cAMP accumulation assay in haematopoetic stem cells; format: cell-based, mouse; details: for cAMP accumulation, compound per se: without forskolin, FIG. 4, FIG. 5
Experimental: Ten mice (C57BL/6) were sacrificed by cervical dislocation. The long bones of the hind limbs (i.e., femora and tibiae) were freed of muscle and connective tissue and flushed with RPMI medium using a syringe and 27½ G needle. The cell suspension was freed from visible connective tissue, collected and transferred to centrifuge tubes. Cells were harvested by centrifugation (1,200 rpm/˜100 g for 5 min) and resuspended in 3 mL erythrocyte lysis buffer (0.15 M NH4Cl, 10 mM KHCO3, 0.1 mM EDTA, pH adjusted to 7.2 to 7.4). The cell suspension was incubated for 2 min at 20° C. followed by 4 min on ice. Thereafter, RPMI (10 mL) was added and the cells were harvested by centrifugation and counted. […] Cells were resuspended in ice-cold PBS (phosphate buffered saline) containing 2% FCS (fetal calf serum) at a cell density of 2.5*10^8 cells/mL to which a cocktail of biotinylated antibodies (“Lineage Cell Depletion Kit” of Miltenyi Biotec) containing lineage-specific antibodies directed against CD5, CD45R (B220), CD11b, GR-1 (=Ly-6G/C), 7-4, and Ter-119 at a ratio of 0.1 mL antibody solution per 10^8 cells. Cells were incubated for 20 min on ice with the antibodies and pelleted by centrifugation. […] Thereafter, the sample was diluted in MACS-buffer (30 mL), the cells were collected by centrifugation and resuspended in 6 mL of MACS-buffer. This suspension was loaded onto prepacked LS columns, which contain ferromagnetic beads coated with a cell-compatible plastic material. Typically three columns were employed for (2 mL cells suspension/column). The flow-through contained the lineage marker-negative cells (Lin^− cells), while the lineage committed cells were retained on the column. Cells were pelleted by centrifugation and resuspended in […]. Lin^−/sca1^+-cells were incubated in 1 mL of stem cell medium (Stem Span SFEM, Stem Cell Tech #09650) containing 0.5 mg/L each, benzylpenicillin and streptomycin, 50 ng/mL each murine stem cell factor (mSCF), human Flt-3, hIL-11 50 ng/mL, m-IL3 (10 ng/mL) (all from PreProTech) 10 μg/mL adenosine deaminase (Roche) and [^3H]adenine (Perkin Elmer, 1 μCi/mL). The preincubation lasted for 4 h at 37° C. […] The cells were then pelleted (5 min at 100 g), the medium was removed and the pellet was lysed in ice-cold 2.5% perchloric acid (0.9 mL) containing 0.1 mM cAMP, held on ice for 1 h and neutralized with 4.2 M KOH (0.1 mL)). Lineage marker-positive cells were preincubated in a similar manner but the medium contained RMPI instead of serum-free stem cell medium. ATP and cAMP were separated by sequential chromatography on columns containing Dowex AG50-X8 and neutral alumina (12). The fact that differences can only be seen in the presence of forskolin is a technical problem—the signal is too low in the absence of forskolin-sensitization to see any differences between the different compounds, i.e. ilo-, beraprost and treprostinil. Sensitization means that cells are sensitized for receptor response as these cells contain extremely low cAMP.

EP2-receptors = EP2-receptors (Homo sapiens, UniProt P43116); details: reference 10; cited from earlier work
Chain of EP2-receptors (P43116 whole entry): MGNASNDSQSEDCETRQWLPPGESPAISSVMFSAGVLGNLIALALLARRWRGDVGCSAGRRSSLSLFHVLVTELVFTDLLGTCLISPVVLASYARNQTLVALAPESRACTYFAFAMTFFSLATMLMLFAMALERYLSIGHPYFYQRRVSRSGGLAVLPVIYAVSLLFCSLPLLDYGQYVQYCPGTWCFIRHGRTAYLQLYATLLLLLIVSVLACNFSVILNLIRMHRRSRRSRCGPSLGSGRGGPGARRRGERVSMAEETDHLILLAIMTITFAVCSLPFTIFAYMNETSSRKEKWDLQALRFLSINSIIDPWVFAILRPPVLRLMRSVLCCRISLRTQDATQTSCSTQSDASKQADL

EP4-receptors = EP4-receptors (Homo sapiens, UniProt P35408); details: reference 10; cited from earlier work
Chain of EP4-receptors (P35408 whole entry): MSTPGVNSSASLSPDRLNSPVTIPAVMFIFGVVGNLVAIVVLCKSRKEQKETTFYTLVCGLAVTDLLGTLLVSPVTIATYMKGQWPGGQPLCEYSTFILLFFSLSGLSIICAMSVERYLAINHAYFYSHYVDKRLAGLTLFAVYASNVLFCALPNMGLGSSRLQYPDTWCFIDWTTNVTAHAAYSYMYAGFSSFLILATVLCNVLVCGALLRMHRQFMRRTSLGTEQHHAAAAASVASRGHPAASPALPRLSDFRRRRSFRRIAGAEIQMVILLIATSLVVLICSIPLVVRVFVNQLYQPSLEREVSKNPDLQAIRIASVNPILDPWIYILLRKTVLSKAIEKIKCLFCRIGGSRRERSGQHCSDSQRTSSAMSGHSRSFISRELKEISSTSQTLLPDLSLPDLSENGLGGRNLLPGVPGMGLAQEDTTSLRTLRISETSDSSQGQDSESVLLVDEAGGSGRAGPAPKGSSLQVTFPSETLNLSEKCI

EP3-receptors = target: T1, EP3-receptors (Homo sapiens, UniProt P43115); details: Gi-coupled, inhibit cAMP accumulation; cited from earlier work
T1 sequence (P43115 1-390): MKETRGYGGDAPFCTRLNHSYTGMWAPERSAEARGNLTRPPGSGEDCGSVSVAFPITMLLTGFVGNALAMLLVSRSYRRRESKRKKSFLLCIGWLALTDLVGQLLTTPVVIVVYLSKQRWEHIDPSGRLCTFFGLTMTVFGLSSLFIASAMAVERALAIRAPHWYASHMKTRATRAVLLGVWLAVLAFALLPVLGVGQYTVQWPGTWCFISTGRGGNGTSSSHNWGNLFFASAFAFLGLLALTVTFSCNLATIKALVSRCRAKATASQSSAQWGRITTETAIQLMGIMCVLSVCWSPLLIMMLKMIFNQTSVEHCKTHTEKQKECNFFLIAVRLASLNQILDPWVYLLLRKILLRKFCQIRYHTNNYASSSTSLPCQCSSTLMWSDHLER

[2] = system: Lin− (Sca1+ and c-Kit+) haematopoetic stem cells; assay: Bone marrow transplantation: reconstitution of bone marrow in lethally irradiated mice by ex vivo pretreated stem cells; details: FIG. 6
[3] = system: Lin+ haematopoetic cell fraction; assay: [3H]cAMP accumulation assay in lineage marker-positive cells; format: cell-based, mouse; details: data not shown
Experimental: Ten mice (C57BL/6) were sacrificed by cervical dislocation. The long bones of the hind limbs (i.e., femora and tibiae) were freed of muscle and connective tissue and flushed with RPMI medium using a syringe and 27½ G needle. The cell suspension was freed from visible connective tissue, collected and transferred to centrifuge tubes. Cells were harvested by centrifugation (1,200 rpm/˜100 g for 5 min) and resuspended in 3 mL erythrocyte lysis buffer (0.15 M NH4Cl, 10 mM KHCO3, 0.1 mM EDTA, pH adjusted to 7.2 to 7.4). The cell suspension was incubated for 2 min at 20° C. followed by 4 min on ice. Thereafter, RPMI (10 mL) was added and the cells were harvested by centrifugation and counted. The typical yield of cells was 3*10^7/mouse. Cells were resuspended in ice-cold PBS (phosphate buffered saline) containing 2% FCS (fetal calf serum) at a cell density of 2.5*10^8 cells/mL to which a cocktail of biotinylated antibodies (“Lineage Cell Depletion Kit” of Miltenyi Biotec) containing lineage-specific antibodies directed against CD5, CD45R (B220), CD11b, GR-1 (=Ly-6G/C), 7-4, and Ter-119 at a ratio of 0.1 mL antibody solution per 10^8 cells. Cells were incubated for 20 min on ice with the antibodies and pelleted by centrifugation. […]

haematopoetic stem cells [4] = details: references 7, 8; cited from earlier work
haematopoetic stem cells [5] = details: in vivo; cited from earlier work

Molecule: CC#CCC(C)C(O)C=CC1C(O)CC2Oc3c(CCCC(=O)O)cccc3C21 (stereo not shown) [Beraprost, 2,3,3a,8b-tetrahydro-2-hydroxy-1-(3-hydroxy-4-methyl-1-octen-6-ynyl)-1H-cyclopenta(b)benzofuran-5-butanoic acid]
- cAMP accumulation, compound per se ([1]; stimulation 1 h): modest accumulation of cAMP

Molecule: CC#CCC(C)[C@H](O)/C=C/[C@@H]1[C@H]2C/C(=C/CCCC(=O)O)C[C@H]2C[C@H]1O (stereo partly drawn) [Iloprost, 5-{(E)-(1S,5S,6R,7R)-7-hydroxy-6[(E)-(3S, 4RS)-3-hydroxy-4-methyl-1-octen-6-inyl]-bi-cyclo[3.3.0]octan-3-ylidene}pentanoic acid]
- cAMP accumulation, compound per se ([1]; stimulation 1 h): modest accumulation of cAMP

Molecule: CCCCC[C@H](O)CC[C@@H]1[C@H]2Cc3cccc(OCC(=O)[O-])c3C[C@H]2C[C@H]1O.[Na+] [Treprostinil, (1R,2R,3aS,9aS)-[[2,3,3a,4,9,9a-hexahydro-2-hydroxy-1-[(3S)-3-hydroxyoctyl]-1H-benz[f]inden-5-yl]oxy]acetic acid monosodium salt]
- stimulation of EP2-receptors (EP2-receptors): stimulates
- stimulation of EP4-receptors (EP4-receptors): stimulates
- agonism at EP3-receptors (EP3-receptors): low affinity agonist
- level of circulating white blood cells ([2]; day 60 after injection of 3*10^5 cells pretreated ex vivo with 10 μM for 1 h at 37° C., versus vehicle-treated cells): significantly higher levels of circulating white blood cells
- effectiveness compared with positive control cholera toxin ([2]; ex vivo pretreatment, white blood cell count): as effective as the positive control cholera toxin
- concentration range of concentration-dependent accumulation of cAMP ([1]; FIG. 5): 0.1 to 10 µM
- EC50 ([1]; Mus musculus, concentration-response curve, FIG. 5, read-out: estimated EC50 of cAMP accumulation): ~300 nM
- increase in cAMP levels when combined with forskolin ([1]; combined with forskolin, stimulation 1 h, FIG. 4): exceeded that caused by the IP-(I prostanoid) receptor-specific compounds Iloprost and Beraprost
- cAMP accumulation, compound per se ([1]; stimulation 1 h, listed as Trepostinil, monosodium salt): increase of cAMP is significant
- cAMP accumulation, compound per se ([1]; stimulation 1 h, monosodium salt): modest accumulation of cAMP
- cAMP levels in Lin+ cells [3]: failed to increase cAMP levels

Molecule: CCCCC(C)(C)[C@H](O)/C=C/[C@H]1[C@H](O)CC(=O)[C@@H]1C/C=C\CCCC(=O)O [dimethyl-PGE2]
- agonism at EP3-receptors (EP3-receptors): full agonist
- engraftment after pretreatment (haematopoetic stem cells [4]): enhances their engraftment

Molecule: cholera toxin
- (Lin−) precursor cells in the bone marrow after pretreatment (haematopoetic stem cells [5]): about twice as many
